Data taken from patent publication EP4282435A1, “FORMULATIONS OF ACTIVE PHARMACEUTICAL INGREDIENTS AND EXCIPIENTS IN ICELLS VIA HYDROPHOBIC ION PAIRING” (Danmarks Tekniske Universitet, priority 2022, dated 2023).
Counter-ions that a name gives are not always drawn. Like-named read-outs stand apart in the source and are kept apart here.

Tests used:
S. aureus strain S54F9 = assay: Microbiological assay, Disc Diffusion Assay; assay type: cell-based, Staphylococcus aureus; conditions: Example 24, wells: 0.5 mg linoleic acid in DMSO; 0.5 mg vancomycin hydrochloride; 45 µl HIP complex + 45 µl PBS; 24 hours at 37 °C
Description: Then, 3 wells were carved out with the use of the broad side of an autoclaved 1 ml pipette tip.
This setup was repeated for three experimental replicates. Each plate was incubated for 24 hours at 37 °C, before inspection.
Then, 3 wells were carved out with the use of the broad side of an autoclaved 1 ml pipette tip. In one well, 0.5 mg linoleic acid was injected as 90 µl 0.22 µm-sterile-filtered dimethyl sulfoxide. In a second well, 90 µl autoclaved phosphate-buffered saline with 0.5 mg vancomycin hydrochloride was injected. […] The plate was incubated for 24 hours at 37 °C, before inspection.

[1] = SuBen:GTH:DMSO (60:15:25) ICell, visual
[2] = Description: After removing the supernatant, the complex was dissolved in methanol, transferred to a new glass vial and the solvent was dried under a gentle nitrogen flow. […] ICell was proportionally added to a vial containing Abaloparatide in its native form to achieve a final Abaloparatide concentration of 1 mg/g. Abaloparatide-HIP complexes were pre-dissolved in DMSO (corresponding to 5% weight of the final formulation), followed by the proportional addition of ICell to obtain a final Abaloparatide concentration of 1 mg/g.

Q: For `CN[C@H](CC(C)C)C(=O)N[C@H]1C(=O)N[C@@H](CC(N)=O)C(=O)N[C@H]2C(=O)N[C@H]3C(=O)N[C@H](C(=O)N[C@H](C(=O)O)c4cc(O)cc(O)c4-c4cc3ccc4O)[C@H](O)c3ccc(c(Cl)c3)Oc3cc2cc(c3O[C@@H]2O[C@H](CO)[C@@H](O)[C@H](O)[C@H]2O[C@H]2C[C@](C)(N)[C@H](O)[C@H](C)O2)Oc2ccc(cc2Cl)[C@H]1O` [Vancomycin hydrochloride], which “antimicrobial activity (clearance of S. aureus)” value (S. aureus strain S54F9) is on record?
A: clearance of S. aureus bacteria

Q: What about the “solubility in ICell” value [1] of the same compound?
A: not dissolvable

Q: For `CC[C@H](C)[C@H](NC(=O)[C@H](CO)NC(=O)[C@H](CCCCN)NC(=O)CNC(=O)[C@H](CCCCN)NC(=O)[C@H](CC(=O)O)NC(=O)[C@H](Cc1cnc[nH]1)NC(=O)[C@H](CC(C)C)NC(=O)[C@H](CC(C)C)NC(=O)[C@H](CCC(N)=O)NC(=O)[C@H](Cc1cnc[nH]1)NC(=O)[C@H](CCC(=O)O)NC(=O)[C@H](CO)NC(=O)[C@@H](NC(=O)[C@H](C)N)C(C)C)C(=O)N[C@@H](CCC(N)=O)C(=O)N[C@@H](CC(=O)O)C(=O)N[C@@H](CC(C)C)C(=O)N[C@@H](CCCNC(=N)N)C(=O)N[C@@H](CCCNC(=N)N)C(=O)N[C@@H](CCCNC(=N)N)C(=O)N[C@@H](CCC(=O)O)C(=O)N[C@@H](CC(C)C)C(=O)N[C@@H](CC(C)C)C(=O)N[C@@H](CCC(=O)O)C(=O)N[C@@H](CCCCN)C(=O)N[C@@H](CC(C)C)C(=O)N[C@@H](CC(C)C)C(=O)NC(C)(C)C(=O)N[C@@H](CCCCN)C(=O)N[C@@H](CC(C)C)C(=O)N[C@@H](Cc1cnc[nH]1)C(=O)N[C@H](C(=O)N[C@@H](C)C(N)=O)[C@@H](C)O` [Abaloparatide], which “solubility in ICell” value [2] is on record?
A: insoluble
